Laboratory results taken from patent publication EP4813990A1, “COMPOUND FOR TREATING CANCER” (INNOLAKE BIOPHARMA (HANGZHOU) CO., LTD., priority 2023, dated 2025).
Read-outs that look alike come from different tables or passages of the source.

Experiments:
[1] = SD rat absorption test (pharmacokinetics); assay type: in vivo, SD rats; settings: for bioavailability / AUC(0-t) / half-life / clearance / Vd / Cmax: Sprague-Dawley, rat, plasma; for bioavailability: oral 12 mg/kg; for half-life: read-out: elimination half-life (T1/2) (converted); for clearance: read-out: plasma clearance rate (CL); for Vd: read-out: steady-state apparent volume of distribution (Vdss); for Cmax: read-out: peak concentrations (Cmax); for ratio of AUC0-last on Day 7 to Day 1 / ratio of Cmax on Day 7 to Day 1: continuous oral 40 mg/kg for 7 days
Protocol: According to the Technical Guidelines for Non-clinical Pharmacokinetic Studies of Drugs and the results of in vitro metabolic species difference studies, liquid chromatography-tandem mass spectrometry (LC-MS/MS) was used in this pharmacokinetic study to fully verify the analytical method for the determination of ILB-2109 content in plasma (EDTA-K2 anticoagulation) of Sprague-Dawley rats and cynomolgus monkeys. The linear range of the method was 20.0~20000 nM. The precision, accuracy and other indicators of the method were confirmed to comply with the relevant regulations of biological sample detection.
This experiment studied the pharmacokinetic properties of ILB-2109 in female and male SD rats, including 1) 2 mg/kg single intravenous injection administration study; 2) 12, 40 and 120 mg/kg oral dose escalation study; 3) 40 mg/kg repeated oral administration BID for 7 consecutive days.

[2] = Excretion of total radioactivity in bile duct cannulated (BDC) rats; assay type: in vivo
[3] = Single-dose toxicity study in rats; settings: Sprague-Dawley, rat, in vivo, po; SD rats, single intragastric administration, observed for 14 days; read-out: maximum tolerated dose (MTD)
Protocol: In accordance with the relevant requirements of the Good Laboratory Practice for Non-clinical Drug Studies issued by the National Medical Products Administration of the People's Republic of China, and following the test protocol and revisions, the safety pharmacology test, single-dose toxicity, genetic toxicity, etc. of ILB-2109 were explored.
SD rats were given single intragastric administration of ILB-2109 and observed for 14 days. The single doses were 0 (vehicle), 500, 1000 and 2000 mg/kg ILB-2109. […] No abnormalities were found in body weight, food consumption, clinical examination and gross anatomy. Under the test conditions, the maximum tolerated dose (MTD) of ILB-2109 in rats was 2000 mg/kg.

[4] = female SD rats, single intravenous injection 2 mg/kg
[5] = female SD rats, single oral 12 mg/kg
[6] = female SD rats, single oral 40 mg/kg
[7] = female SD rats, single oral 120 mg/kg
[8] = male SD rats, single intravenous injection 2 mg/kg
[9] = male SD rats, single oral 12 mg/kg
[10] = male SD rats, single oral 40 mg/kg
[11] = male SD rats, single oral 120 mg/kg
[12] = BDC rats, 0-72 hours after single oral administration

Cc1cc(-c2c(-c3ccccc3)nc(N)n3nc(CO)nc23)cc(C(F)(F)F)n1 [ILB-2109]
tolerability in the PK study ([1]; SD rats, all dose regimens of the absorption test): tolerated the compound well without any abnormal manifestations
bioavailability ([1]; female SD rats): 67.8%
AUC(0-t) [1, 4]: 60.3 ± 5.18 µM·h
half-life [1, 4]: 5.71 ± 1.25 h
clearance [1, 4]: 1.33 ± 0.135 mL/min/kg
Vd [1, 4]: 0.526 ± 0.0558 L/kg
AUC(0-t) [1, 5]: 247 ± 22.1 µM·h
Cmax [1, 5]: 33.7 ± 2.8 µM
AUC(0-t) [1, 6]: 915 ± 169 µM·h
Cmax [1, 6]: 124 ± 17.5 µM
AUC(0-t) [1, 7]: 1560 ± 205 µM·h
Cmax [1, 7]: 155 ± 24.3 µM
bioavailability ([1]; male SD rats): 73%
AUC(0-t) [1, 8]: 13.3 ± 2.26 µM·h
half-life [1, 8]: 1.26 ± 0.361 h
clearance [1, 8]: 6.3 ± 1.04 mL/min/kg
Vd [1, 8]: 0.681 ± 0.0975 L/kg
AUC(0-t) [1, 9]: 58.9 ± 19.2 µM·h
Cmax [1, 9]: 23.8 ± 2.23 µM
AUC(0-t) [1, 10]: 296 ± 54.1 µM·h
Cmax [1, 10]: 63.3 ± 1.65 µM
AUC(0-t) [1, 11]: 792 ± 167 µM·h
Cmax [1, 11]: 118 ± 19.8 µM
peak time [1, 5]: 2.33 ± 1.53 h
peak time [1, 6]: 3.33 ± 1.15 h
peak time [1, 7]: 2.67 ± 1.15 h
dose proportionality of systemic exposure (AUC0-last) and Cmax ([1]; female and male rats, oral dose range 12 to 40 mg/kg): increased basically proportionally to the dose
ratio of AUC0-last on Day 7 to Day 1 ([1]; female rats): 0.669
ratio of Cmax on Day 7 to Day 1 ([1]; female rats): 0.899
peak time [1, 9]: 0.667 ± 0.289 h
peak time [1, 10]: 1.33 ± 0.577 h
peak time [1, 11]: 2.67 ± 1.15 h
ratio of AUC0-last on Day 7 to Day 1 ([1]; male rats): 0.584
ratio of Cmax on Day 7 to Day 1 ([1]; male rats): 0.673
ratio of AUC0-last between female and male rats ([1]; oral single dose 12 mg/kg): 4.19
ratio of AUC0-last between female and male rats ([1]; oral single dose 40 mg/kg): 3.09
ratio of AUC0-last between female and male rats ([1]; oral single dose 120 mg/kg): 1.97
average of total radioactivity recovery [2, 12]: 93.63%
cage washing and cleaning fluid, share of the administered dose [2, 12]: 0.85%
feces, share of the administered dose [2, 12]: 14.45%
total biliary excretion, share of the administered dose [2, 12]: 66.17%
urine, share of the administered dose [2, 12]: 12.16%
oral absorption rate ([2]; from total radioactive excretion of bile and urine in BDC rats): at least 78.33%
MTD at 14 days [3]: 2000 mg/kg
